Results on 42 compounds are retold here after patent US8916702B2 (priority 2012, dated 2014).

The subject of the experiment is HCV pseudoparticles (genotype 1a HCV E1 and E2 envelope, H77C isolate). As to the kind of experiment: microbe, parasite or virus in culture. The following applies: Hepatitis C virus. Format: cell-based.
Where [1] appears, read: Huh-7, 48 h, read-out: Activity (EC50 class), HCV pseudoparticle infection of Huh7 cells, luciferase 2 days after infection, EC50 expressed as class A/B.
Setting [2] is: Huh-7, read-out: Activity (EC50 class), HCV pseudoparticles (genotype 1a, H77C) in Huh7 cells, EC50 expressed as class A/B.
Where [3] appears, read: Huh-7, 48 h, HCV pseudoparticles (genotype 1a, H77C) in Huh7 cells, average of duplicate, luciferase 2 days after infection.
[4] abbreviates: Huh-7, 48 h, read-out: Activity (EC50 class), HCV pseudoparticles, Huh7 cells, luciferase 2 days after infection, average of duplicates.
The mark [5] stands for this setting: Huh-7, 48 h, HCV pseudoparticle infection of Huh7 cells, luciferase 2 days after infection, average of duplicates.

SMILES strings stand for the structures. Like-named read-outs stand apart in the source and are kept apart here.

Turning to `COC(=O)[C@H](CCNC(=O)C(=O)Nc1ccccc1F)NC(=O)c1ccc(Nc2nc(NC3(c4ccc(Cl)cc4)CC3)nc(OCC(F)(F)F)n2)cc1` [Compound 1231], the EC50 under setting [1] was in the range of 0.01 to 10 nM.

Regarding `CCC1(CC)CC1CNC(=O)C(=O)NCC[C@H](NC(=O)c1ccc(Nc2nc(NC3(c4ccc(Cl)cc4)CC3)nc(OCC(F)(F)F)n2)cc1)C(=O)O` (some centres unmarked) [Compound 1209], the EC50 under setting [1] lay within 0.01 to 10 nM.

In the case of `COC(=O)/C(CCNC(=O)C(=O)Nc1ccc(-n2cccn2)cc1)=N\C(=O)c1ccc(Nc2nc(NC3(c4ccc(Cl)cc4)CC3)nc(OCC(F)(F)F)n2)cc1` [Compound 3136], under setting [2], the EC50 was in the range of 0.01 to 10 nM.

Consider `O=C(NCCCN(CCO)C(=O)C(=O)N1CCCCC1)c1ccc(Nc2nc(NC3(c4ccc(Cl)cc4)CC3)nc(OCC(F)(F)F)n2)cc1` [Compound 3509], for which the EC50 under setting [2] lay within 0.01 to 10 nM.

In the case of `COc1ncccc1NC(=O)C(=O)NCC(C)(C)CNC(=O)c1ccc(Nc2nc(NC3(c4ccc(Cl)cc4)CC3)nc(OCC(F)(F)F)n2)cc1` [Compound 3366], the EC50 was 0.14 nM under setting [3] and 0.01 to 10 nM under setting [2].

As to `COC(=O)[C@H](CCNC(=O)C(=O)Nc1ccc(CCO)cc1)NC(=O)c1ccc(Nc2nc(NC3(c4ccc(Cl)cc4)CC3)nc(OCC(F)(F)F)n2)cc1` [Compound 3218], under setting [2], the EC50 was in the range of 0.01 to 10 nM.

With `CN(C)CCOc1ccc(NC(=O)C(=O)NC[C@H](NC(=O)c2ccc(Nc3nc(NC4(c5ccc(Cl)cc5)CC4)nc(OCC(F)(F)F)n3)cc2)C(=O)Cl)cn1` [Compound 3790], under setting [4], the EC50 is 0.01 to 10 nM.

With `C[C@H]1[C@H]2C[C@@H](C[C@H]1NC(=O)C(=O)NCC[C@H](NC(=O)c1ccc(Nc3nc(NC4(c5ccc(Cl)cc5)CC4)nc(OCC(F)(F)F)n3)cc1)C(=O)O)C2(C)C` [Compound 1130], the EC50 is, setting by setting: under setting [5], 0.12 nM; under setting [1], 0.01 to 10 nM.

Turning to `Cn1cnnc1-c1cccc(NC(=O)C(=O)NC[C@H](NC(=O)c2ccc(Nc3nc(NC4(c5ccc(Cl)cc5)CC4)nc(OCC(F)(F)F)n3)cc2)C(=O)O)c1` [Compound 3774], the EC50 under setting [4] fell in the range of 0.01 to 10 nM.

Take `COC(=O)[C@H](CNC(=O)C(=O)NC1CCCC(O)C1)NC(=O)c1ccc(Nc2nc(NC3(c4ccc(Cl)cc4)CC3)nc(OCC(F)(F)F)n2)cc1` (some centres unmarked) [Compound 1056]: the EC50 under setting [1] lay in the range of 0.01 to 10 nM.

As to `O=C(NCCCCNC(=O)c1ccc(Nc2nc(NC3(c4ccc(Cl)cc4)CC3)nc(OCC(F)(F)F)n2)cc1)C(=O)NC1CCCCC1` [Compound 3398], the EC50 under setting [2] lay within 0.01 to 10 nM.

Turning to `COC(=O)[C@H](CNC(=O)C(N)=O)NC(=O)c1ccc(Nc2nc(NC3(c4ccc(Cl)cc4)CC3)nc(OCC(F)(F)F)n2)cc1` [Compound 1002, (S)-methyl 3-(2-amino-2-oxoacetamido)-2-(4-(4-(1-(4-chlorophenyl)cyclopropylamino)-6-(2,2,2-trifluoroethoxy)-1,3,5-triazin-2-ylamino)benzamido)propanoate], the EC50 by setting is: under setting [5], 2.11 nM; under setting [1], 0.01 to 10 nM.

Consider `COC(=O)[C@H](CNC(=O)C(=O)Nc1cccc(-c2ccc(Cl)cc2)c1)NC(=O)c1ccc(Nc2nc(NC3(c4ccc(Cl)cc4)CC3)nc(OCC(F)(F)F)n2)cc1` [Compound 3720], for which, under setting [4], the 50% effective concentration (EC50) was 0.01 to 10 nM.

Regarding `COC(=O)[C@H](CNC(=O)C(=O)Nc1cncn1C)NC(=O)c1ccc(Nc2nc(NC3(c4ccc(Cl)cc4)CC3)nc(OCC(F)(F)F)n2)cc1` [Compound 1247], the EC50 under setting [1] was 0.01 to 10 nM.

In the case of `Cc1ccc(-c2cccc(NC(=O)C(=O)NCC[C@H](NC(=O)c3ccc(Nc4nc(NC5(c6ccc(Cl)cc6)CC5)nc(OCC(F)(F)F)n4)cc3)C(=O)O)c2)cc1` [Compound 3644], the EC50 under setting [4] lay within 0.01 to 10 nM.

On to `CNS(=O)(=O)c1cccc(NC(=O)C(=O)NC[C@H](NC(=O)c2ccc(Nc3nc(NC4(c5ccc(Cl)cc5)CC4)nc(OCC(F)(F)F)n3)cc2)C(=O)Cl)c1` [Compound 3782], for which the EC50 under setting [4] was 0.01 to 10 nM.

`CNC(=O)C(=O)NC[C@H](NC(=O)c1ccc(Nc2nc(NC3(c4ccc(Cl)cc4)CC3)nc(OCC(F)(F)F)n2)cc1)C(=O)OC` [Compound 1003, (S)-methyl 2-(4-(4-(1-(4-chlorophenyl)cyclopropylamino)-6-(2,2,2-trifluoroethoxy)-1,3,5-triazin-2-ylamino)benzamido)-3-(2-(methylamino)-2-oxoacetamido)propanoate]: the EC50 under setting [1] fell in the range of 0.01 to 10 nM.

Consider `COC(=O)[C@H](CCNC(=O)C(=O)NCc1ccccc1OC)NC(=O)c1ccc(Nc2nc(NC3(c4ccc(Cl)cc4)CC3)nc(OCC(F)(F)F)n2)cc1` [Compound 1155], for which, under setting [1], the EC50 was 0.01 to 10 nM.

On to `COC(=O)[C@H](CNC(=O)C(=O)Nc1ccc(C)nc1)NC(=O)c1ccc(Nc2nc(NC3(c4ccc(Cl)cc4)CC3)nc(OCC(F)(F)F)n2)cc1` [Compound 3711], for which the half-maximal effective concentration (EC50) under setting [4] is 0.01 to 10 nM.

As for `CN(C(=O)C(=O)NCC(C)(C)CNC(=O)c1ccc(Nc2nc(NC3(c4ccc(Cl)cc4)CC3)nc(OCC(F)(F)F)n2)cc1)c1cccc(F)c1` [Compound 1578], under setting [1], the EC50 lay within 0.01 to 10 nM.

As to `CCCc1ccc(NC(=O)C(=O)NCC(C)(C)CNC(=O)c2ccc(Nc3nc(NC4(c5ccc(Cl)cc5)CC4)nc(OCC(F)(F)F)n3)cc2)cc1` [Compound 1573], the concentration for a half-maximal effect (EC50) under setting [1] fell in the range of 0.01 to 10 nM.

Consider `NC(=O)CCc1cccc(NC(=O)C(=O)NCC[C@H](NC(=O)c2ccc(Nc3nc(NC4(c5ccc(Cl)cc5)CC4)nc(OCC(F)(F)F)n3)cc2)C(=O)O)c1` [Compound 3663], for which, under setting [4], the EC50 was 0.01 to 10 nM.

Regarding `COC(=O)[C@H](CNC(=O)C(=O)Nc1ccc(-n2cnnn2)cc1)NC(=O)c1ccc(Nc2nc(NC3(c4ccc(Cl)cc4)CC3)nc(OCC(F)(F)F)n2)cc1` [Compound 3191], the EC50 was 0.82 nM under setting [3] and 0.01 to 10 nM under setting [2].

`CN(CCCN(C)C(=O)c1ccc(Nc2nc(NC3(c4ccc(Cl)cc4)CC3)nc(OCC(F)(F)F)n2)cc1)C(=O)C(=O)Nc1ccc(F)cc1F` [Compound 3426]: the EC50 under setting [2] lay in the range of 0.01 to 10 nM.

Take `COC(=O)[C@H](CNC(=O)C(=O)Nc1ccc(C)cc1)NC(=O)c1ccc(Nc2nc(NC3(c4ccc(Cl)cc4)CC3)nc(OCC(F)(F)F)n2)cc1` [Compound 3085]: under setting [2], the EC50 was 0.01 to 10 nM.

On to `O=C(NCC[C@H](NC(=O)c1ccc(Nc2nc(NC3(c4ccc(Cl)cc4)CC3)nc(OCC(F)(F)F)n2)cc1)C(=O)O)C(=O)NCC1(Cn2cccn2)CC1` [Compound 1428], for which, under setting [1], the EC50 was 0.01 to 10 nM.

`COC(=O)[C@H](CNC(=O)C(=O)NC1(CC(C)C)CC1)NC(=O)c1ccc(Nc2nc(NC3(c4ccc(Cl)cc4)CC3)nc(OCC(F)(F)F)n2)cc1` [Compound 1058]: the EC50 is 1.15 nM under setting [5] and 0.01 to 10 nM under setting [1].

`CC(C)CNC(=O)C(=O)NC(C)(C)CNC(=O)c1ccc(Nc2nc(NC3(c4ccc(Cl)cc4)CC3)nc(OCC(F)(F)F)n2)cc1` [Compound 3442]: under setting [2], the EC50 is 0.01 to 10 nM.

For `O=C(NCCCCNC(=O)c1ccc(Nc2nc(NC3(c4ccc(Cl)cc4)CC3)nc(OCC(F)(F)F)n2)cc1)C(=O)Nc1nccs1` [Compound 3399], the EC50 under setting [2] lay within 0.01 to 10 nM.

In the case of `CC(C)(CNC(=O)C(=O)Nc1ccc(Cl)cc1F)CNC(=O)c1ccc(Nc2nc(NC3(c4ccc(Cl)cc4)CC3)nc(OCC(F)(F)F)n2)cc1` [Compound 3452], the EC50 under setting [2] was in the range of 0.01 to 10 nM.

With `O=C(NC[C@H](NC(=O)c1ccc(Nc2nc(NC3(c4ccc(Cl)cc4)CC3)nc(OCC(F)(F)F)n2)cc1)C(=O)Cl)C(=O)Nc1cccc(Cl)c1` [Compound 3741], the EC50 under setting [4] was 0.01 to 10 nM.

Consider `COC(=O)[C@H](CCNC(=O)C(=O)NC1CCCC(O)C1)NC(=O)c1ccc(Nc2nc(NC3(c4ccc(Cl)cc4)CC3)nc(OCC(F)(F)F)n2)cc1` (some centres unmarked) [Compound 1070], for which the EC50 under setting [1] was 0.01 to 10 nM.

Consider `O=C(NCC[C@H](NC(=O)c1ccc(Nc2nc(NC3(c4ccc(Cl)cc4)CC3)nc(OCC(F)(F)F)n2)cc1)C(=O)O)C(=O)Nc1cc(F)c(F)cc1F` [Compound 1514], for which the EC50 was 0.04 nM under setting [5] and 0.01 to 10 nM under setting [1].

With `COC(=O)[C@H](CCNC(=O)C(=O)NCc1ccc(F)cc1F)NC(=O)c1ccc(Nc2nc(NC3(c4ccc(Cl)cc4)CC3)nc(OCC(F)(F)F)n2)cc1` [Compound 1161], under setting [1], the EC50 was 0.01 to 10 nM.

`CC(C)(CNC(=O)C(=O)Nc1ccc(-n2cncn2)cc1)CNC(=O)c1ccc(Nc2nc(NC3(c4ccc(Cl)cc4)CC3)nc(OCC(F)(F)F)n2)cc1` [Compound 3053]: the EC50 under setting [2] was in the range of 0.01 to 10 nM.

Regarding `COC(=O)[C@@H](CCNC(=O)C(=O)NCC1(CN2CCCC2)CC1)NC(=O)c1ccc(Nc2nc(NC3(c4ccc(Cl)cc4)CC3)nc(OCC(F)(F)F)n2)cc1` [Compound 1384], the EC50 under setting [1] lay within 0.01 to 10 nM.

Take `O=C(NCC[C@H](NC(=O)c1ccc(Nc2nc(NC3(c4ccc(Cl)cc4)CC3)nc(OCC(F)(F)F)n2)cc1)C(=O)O)C(=O)Nc1cccc(C(=O)c2ccccc2)c1` [Compound 3618]: under setting [4], the EC50 lay in the range of 0.01 to 10 nM.

As to `Cc1ccc(NC(=O)C(=O)NCC(C)(C)CNC(=O)c2ccc(Nc3nc(NC4(c5ccc(Cl)cc5)CC4)nc(OCC(F)(F)F)n3)cc2)c(C)c1` [Compound 3055], the EC50 was 0.0095 nM under setting [3] and 0.01 to 10 nM under setting [2].

On to `CC(C)(CNC(=O)C(=O)Nc1nc2c(Cl)ccc(Cl)c2s1)CNC(=O)c1ccc(Nc2nc(NC3(c4ccc(Cl)cc4)CC3)nc(OCC(F)(F)F)n2)cc1F` [Compound 3681], for which the concentration giving a half-maximal response (EC50) under setting [4] is 0.01 to 10 nM.

For `COC(=O)[C@H](CNC(=O)C(=O)NC1CCC(C)CC1)NC(=O)c1ccc(Nc2nc(NC3(c4ccc(Cl)cc4)CC3)nc(OCC(F)(F)F)n2)cc1` (some centres unmarked) [Compound 1064], the EC50 runs as follows: under setting [5], 1.89 nM; under setting [1], 0.01 to 10 nM.

Regarding `COC(=O)[C@H](CNC(=O)C(=O)Nc1ccc(Oc2ccccc2)cc1)NC(=O)c1ccc(Nc2nc(NC3(c4ccc(Cl)cc4)CC3)nc(OCC(F)(F)F)n2)cc1` [Compound 3082], the EC50 under setting [2] was 0.01 to 10 nM.

In the case of `CN1CCCC1CCNC(=O)C(=O)NC[C@H](NC(=O)c1ccc(Nc2nc(NC3(c4ccc(Cl)cc4)CC3)nc(OCC(F)(F)F)n2)cc1)C(=O)O` (some centres unmarked) [Compound 1040], the EC50 under setting [1] is 10 to 1000 nM.
